# Values of other authors as cited in patent publication US11033613B2, “Methods and compositions for treating cancer” (Memorial Sloan Kettering Cancer Center, priority 2015, dated 2021).
# Test system: CD4+ and CD8+ responses
# Conditions: according to data from preclinical and phase 1 studies
sequence,measurement,value
SGQAYMFPNAPYLPSCLES [WT1-122A1 long],stimulation of CD4+ and CD8+ responses,stimulate both CD4+ and CD8+ responses
